Measured values as given in patent publication US20260250519A1, “Copper Containing Compounds and Compositions for Antimicrobial Paint and Coating” (ARXADA, LLC, priority 2022, published 2026).
Entries after “also recorded” stand apart in the source; their conditions may differ.

Legend:
[1] = Compatibility of copper compounds in flat wall paint, visual assessment of dry film for grits; format: physicochemical; conditions: 600 ppm Cu in acrylic flat wall paint; dry film inspected for grits
Method: The compatibilities of copper compounds in paint were evaluated via visual assessment of dry film appearance of a flat wall paint (50% PVC, 35% Solid Vol, 45 g/L VOC, Table 1).

[2] = test system: Aspergillus niger (ATCC 6275), Aureobasidium pullulans (ATCC 9348) and Penicillium citrinum (ATCC 9849); test: ASTM resistance to growth of mold on interior coatings in an environmental chamber; format: cell-based; conditions: for Avg Rating: 4 weeks in chamber; for antifungal test pass/fail: Pass = rating 8-10 (Table 9)
Method: Two coatings were brushed onto both faces and all edges of wood panel (allowing 1 day between coats). The resulting coated panels were dried at 23±2° C. and 50±5% relative humidity for 4 days. […] In the environmental chamber, the dried coated panels were hung vertically with the bottom approximately 3 inch above the surface of the inoculated soil and with sufficient spacing to allow free circulation of air and to prevent contact between panels or with wall surfaces. […] The degrees of fungal contamination were assessed using the rating scale in Table 9.

[3] = cited from earlier work
[4] = test system: Escherichia coli (ATCC 8739); test: Modified JIS Z2801 antibacterial efficacy in dry paint film (μBCC, ZnO); format: cell-based; conditions: ZnO 0 ppm in flat wall paint; for 2 hr Contact Time % ↓ / 2 hr Contact Time Log10 ↓: relative to blank paint
Method: (§1) In brief, μBCC dispersion and optional ZnO dispersion (25 wt %) were added into a flat wall paint (50% PVC, 35% Solid Vol, 45 g/L VOC, Table 1) for target Cu and ZnO level, respectively. The paints were brushed onto the sterilized plastic filter paper. Each side of the filter paper was painted twice and the resulting coated paper was dried at ambient condition for 3 days. The dried coatings were then leached against 10 L water for 24 hours (4 water changes for the first 8 hour). Each of three (3) bacterial inoculum (0.4 mL): Escherichia coli (ATCC 8739), Staphylococcus aureus (ATCC 6538), Pseudomonas aeruginosa (ATCC 15442) was used to inoculate the dry film (40 mm×40 mm) of test paint to achieve 1.0 to 4.0×10^5 cfm/mL of inoculum concentration per each bacteria on dry surface of each test paint. The test paints were incubated at 35±1° C. and 90% relative humidity (RH) for 2 hour. The degrees of bacterial contamination of all samples were determined relative to blank paint via viable cell count of bacteria by agar plate culture method.

[5] = test system: Pseudomonas aeruginosa (ATCC 15442); test: as above; format: cell-based; conditions: ZnO 0 ppm in flat wall paint; for 2 hr Contact Time % ↓ / 2 hr Contact Time Log10 ↓: relative to blank paint
Method: as §1

[6] = test system: Staphylococcus aureus (ATCC 6538); test: as above; format: cell-based; conditions: ZnO 0 ppm in flat wall paint; for 2 hr Contact Time % ↓ / 2 hr Contact Time Log10 ↓: relative to blank paint
Method: as §1

[7] = test system: Pseudomonas aeruginosa (ATCC 15442); test: Interim EPA method for antimicrobial surface coatings, flat wall paint; format: cell-based; conditions: 1670 ppm in flat wall paint
Method: (§2) The antibacterial efficacies of copper-containing composition in dry paint film were evaluated using an interim EPA method (Interim Method for Evaluating the Efficacy of Antimicrobial Surface Coatings: Oct. 2, 2020). In brief, μBCC dispersion was added into a flat wall paint (38% Solid Vol, <50 g/L VOC) for target Cu level. The paints were drawn-down onto the sterilized steel substrate (1 inch by 1 inch of AISI type 304 stainless steel). The resulting coated substrate was dried at ambient condition for at least 24 hours. Each of two (2) bacterial inoculum ([…]): Staphylococcus aureus (ATCC 6538) and Pseudomonas aeruginosa (ATCC 15442) was used to inoculate the dry film of test paint to achieve 10^4 to 10^5 cfm/carrier of each bacteria on dry surface of each test paint. The test paints were incubated at 22° C. and 30-40% RH for 2 hours. The degrees of bacterial contamination were determined via viable cell count for antibacterial efficacy relative to the uncoated substrate.

[8] = test system: Staphylococcus aureus (ATCC 6538); test: as above; format: cell-based; conditions: Cu 1670 ppm in flat wall paint
Method: as §2

[9] = test system: Escherichia coli (ATCC 8739); test: Modified JIS Z2801, increased inoculum, Quat-containing matte wall paint; format: cell-based; conditions: Quat 5200 ppm, Cu 0 ppm in matte wall paint
Method: (§3) The antibacterial efficacies of copper-containing composition in dry paint film were evaluated using a modified JIS Z2801 method (Antimicrobial Product-Test for Antimicrobial Activity and Efficacy: 2000) by reducing contact time from 24 hour to 2 hour, including Pseudomonas aeruginosa as an additional bacteria and increasing inoculum strength to 5.0 to 10.0×10^7 cfm/mL. […] The paints were brushed onto the sterilized plastic filter paper. Each side of the filter paper was painted twice and the resulting coated paper was dried at ambient condition for 3 days. The dried coatings were then leached against 10 L water for 24 hours (4 water changes for the first 8 hour). Each of three (3) bacterial inoculum (0.4 mL): Escherichia coli (ATCC 8739), Staphylococcus aureus (ATCC 6538), Pseudomonas aeruginosa (ATCC 15442) was used to inoculate the dry film (40 mm×40 mm) of test paint to achieve 5.0 to 10.0×10^7 cfm/mL of inoculum concentration per each bacteria on dry surface of each test paint. The test paints were incubated at 35±1° C. and 90% RH for 2 hour. The degrees of bacterial contamination were determined relative to blank paint via viable cell count of bacteria by agar plate culture method.

[10] = test system: Pseudomonas aeruginosa (ATCC 15442); test: as above; format: cell-based; conditions: Quat 5200 ppm, Cu 0 ppm in matte wall paint
Method: as §3

[11] = test system: Staphylococcus aureus (ATCC 6538); test: as above; format: cell-based; conditions: Quat 5200 ppm, Cu 0 ppm in matte wall paint
Method: as §3

[12] = test system: Pseudomonas aeruginosa (ATCC 15442); test: Interim EPA method with dry and chemical abrasion, Quat-containing matte wall paint; format: cell-based; conditions: Quat 5200 ppm, Cu 0 ppm; for 2 hr Contact Time % ↓ / 2 hr Contact Time Log10 ↓: relative to uncoated substrate
Method: (§4) The antibacterial efficacies of copper-containing composition in dry paint film were evaluated using an interim EPA method (Interim Method for Evaluating the Efficacy of Antimicrobial Surface Coatings: Oct. 2, 2020). […] The paints were drawn-down onto the sterilized steel substrate (1 inch by 1 inch of AISI type 304 stainless steel). The resulting coated substrate was dried at ambient condition for at least 24 hours. Some of the dried coated substrates were further subject to dry and chemical abrasion for 1 week residual efficacy claim. As for dry abrasion, the coated substrate was exposed to 10 cycles of dry abrasion by a Scotch Brite Non-Scratch Scrub Sponge using a BYK Gardner-Scrub machine, each of which comprises 16 single passes. As for chemical abrasion, the scrub sponge was soaked in sodium hypochlorite (2000 ppm NaOCl) solution and EPA-registered Quat-containing Nugen™ MB^5N-256 (256× dilution) disinfectant prior to the abrasion. The coated substrate was exposed to 10 cycles of chemical abrasion by the soaked scrub sponge, each of which comprises 8 single passes. After rinsing and drying to remove the residual NaOCl and Quat, each of two (2) bacterial inoculum ([…]): Staphylococcus aureus (ATCC 6538) and Pseudomonas aeruginosa (ATCC 15442) was used to inoculate the dry film of test paint to achieve 10^4 to 10^5 cfm/carrier of bacteria on dry surface of each test paint. The test paints were incubated at 22° C. and 30-40% RH for 2 hours. The degrees of bacterial contamination were determined via viable cell count for antibacterial efficacy relative to the uncoated substrate.

[13] = test system: Staphylococcus aureus (ATCC 6538); test: as above; format: cell-based; conditions: Quat 5200 ppm, Cu 0 ppm; for 2 hr Contact Time % ↓ / 2 hr Contact Time Log10 ↓: relative to uncoated substrate
Method: as §4

[14] = no Cu additive, Quat level 2000 ppm

## O=S(=O)([O-])[O-].[Cu+2] [CuSO4, copper sulfate, reference compound]
[1]
  Compatibilities of Copper Compounds in Paint: Incompatible (many grits)

## CCCCCCCCCCCCN(C)C [Lauryl Dimethyl Amine, reference compound]
[2]; [14]
  Avg Rating: 2.7

## On1ccccc1=S.On1ccccc1=S.[Cu] [copper pyrithione]
[3]
  solubility: 30 ng/mL

## O=C([O-])[O-].[Cu+2].[Cu+2].[OH-].[OH-] [μBCC, Micronized basic copper carbonate]
[1]
  Compatibilities of Copper Compounds in Paint: compatible; also recorded: Compatible (no grits)
[4]; Cu 165 ppm
  2 hr Contact Time Avg: <5.7E+01
  2 hr Contact Time Log10: <1.75
  2 hr Contact Time % ↓: ≥99.920%
  2 hr Contact Time Log10 ↓: ≥3.10
[4]; Cu 330 ppm
  2 hr Contact Time Avg: <1.0E+01
  2 hr Contact Time Log10: <1.00
  2 hr Contact Time % ↓: ≥99.986%
  2 hr Contact Time Log10 ↓: ≥3.85
[4]; Cu 824 ppm
  2 hr Contact Time Avg: <4.0E+01
  2 hr Contact Time Log10: <1.60
  2 hr Contact Time % ↓: ≥99.944%
  2 hr Contact Time Log10 ↓: ≥3.25
[4]; Cu 1650 ppm
  2 hr Contact Time Avg: <1.0E+01
  2 hr Contact Time Log10: <1.00
  2 hr Contact Time % ↓: ≥99.986%
  2 hr Contact Time Log10 ↓: ≥3.85
[5]; Cu 165 ppm
  2 hr Contact Time Avg: 1.2E+03
  2 hr Contact Time Log10: 3.08
  2 hr Contact Time % ↓: 93.632%
  2 hr Contact Time Log10 ↓: 1.20
[5]; Cu 330 ppm
  2 hr Contact Time Avg: 1.3E+03
  2 hr Contact Time Log10: 3.13
  2 hr Contact Time % ↓: 92.912%
  2 hr Contact Time Log10 ↓: 1.15
[5]; Cu 824 ppm
  2 hr Contact Time Avg: <4.7E+01
  2 hr Contact Time Log10: <1.67
  2 hr Contact Time % ↓: ≥99.754%
  2 hr Contact Time Log10 ↓: ≥2.61
[5]; Cu 1650 ppm
  2 hr Contact Time Avg: 2.7E+01
  2 hr Contact Time Log10: 1.43
  2 hr Contact Time % ↓: 99.860%
  2 hr Contact Time Log10 ↓: 2.85
[6]; Cu 165 ppm
  2 hr Contact Time Avg: 6.3E+01
  2 hr Contact Time Log10: 1.80
  2 hr Contact Time % ↓: 99.936%
  2 hr Contact Time Log10 ↓: 3.20
[6]; Cu 330 ppm
  2 hr Contact Time Avg: <2.0E+01
  2 hr Contact Time Log10: <1.30
  2 hr Contact Time % ↓: ≥99.980%
  2 hr Contact Time Log10 ↓: ≥3.70
[6]; Cu 824 ppm
  2 hr Contact Time Avg: <4.0E+01
  2 hr Contact Time Log10: <1.60
  2 hr Contact Time % ↓: ≥99.960%
  2 hr Contact Time Log10 ↓: ≥3.40
[6]; Cu 1650 ppm
  2 hr Contact Time Avg: <1.0E+01
  2 hr Contact Time Log10: <1.00
  2 hr Contact Time % ↓: ≥99.990%
  2 hr Contact Time Log10 ↓: ≥4.00
[7]
  2 hr Contact Time Avg: 1.0E+00
  2 hr Contact Time Log10: 0.00
[7]; relative to uncoated substrate
  2 hr Contact Time % ↓: 99.9964%
  2 hr Contact Time Log10 ↓: 4.45
[8]
  2 hr Contact Time Avg: 6.6E+01
  2 hr Contact Time Log10: 1.82
[8]; relative to uncoated substrate
  2 hr Contact Time % ↓: 99.9287%
  2 hr Contact Time Log10 ↓: 3.15
[2]; 167 ppm Cu
  antifungal test pass/fail: fails
[2]; 333 ppm Cu
  antifungal test pass/fail: passes
[2]; Cu level 167 ppm, no Quat
  Avg Rating: 7.7
[2]; Cu level 333 ppm, no Quat
  Avg Rating: 9.3

## N,N-Didecyl-N,N-dimethylammonium carbonate/bicarbonate [reference compound]
[2]; [14]
  Avg Rating: 3.3

## alkyl (50% C14, 10% C16, 40% C12) dimethyl benzyl ammonium chloride [Quat]
[9]
  2 hr Contact Time Avg: 1.4E+02
  2 hr Contact Time Log10: 2.16
[10]
  2 hr Contact Time Avg: 2.9E+05
  2 hr Contact Time Log10: 5.46
[11]
  2 hr Contact Time Avg: <1.5E+02
  2 hr Contact Time Log10: <2.19
[12]; Dry Abraded
  2 hr Contact Time Avg: 1.0E+2
  2 hr Contact Time Log10: 2.01
  2 hr Contact Time % ↓: 99.6285%
  2 hr Contact Time Log10 ↓: 2.43
[12]; NaOCl Abraded
  2 hr Contact Time Avg: 1.4E+0
  2 hr Contact Time Log10: 0.16
  2 hr Contact Time % ↓: 99.9994%
  2 hr Contact Time Log10 ↓: 4.28
[12]; Quat Abraded
  2 hr Contact Time Avg: 1.1E+2
  2 hr Contact Time Log10: 2.06
  2 hr Contact Time % ↓: 99.5831%
  2 hr Contact Time Log10 ↓: 2.38
[12]; Unexposed
  2 hr Contact Time Avg: 1.7E+3
  2 hr Contact Time Log10: 3.23
  2 hr Contact Time % ↓: 93.8340%
  2 hr Contact Time Log10 ↓: 1.21
[13]; Dry Abraded
  2 hr Contact Time Avg: 1.0E+0
  2 hr Contact Time Log10: 0.00
  2 hr Contact Time % ↓: 99.9990%
  2 hr Contact Time Log10 ↓: 5.00
[13]; NaOCl Abraded
  2 hr Contact Time Avg: 1.0E+0
  2 hr Contact Time Log10: 0.00
  2 hr Contact Time % ↓: 99.9990%
  2 hr Contact Time Log10 ↓: 5.00
[13]; Unexposed
  2 hr Contact Time Avg: 1.0E+0
  2 hr Contact Time Log10: 0.00
  2 hr Contact Time % ↓: 99.9990%
  2 hr Contact Time Log10 ↓: 5.00
